Experiment [1] addresses T1, labeled rabbit muscle actin (Oryctolagus cuniculus, UniProt P68135).
T1 construct: fluorescent label (chemical); purchased Abcam; host or cells: rabbit muscle
Description: In vitro actin polymerization assay. It counts as biochemical. To be noted: 5 µM, 1 h, room temperature; vehicle plateau about 25,000 RFU. An excerpt:
With the aim to confirm the immunofluorescence results and substantiate whether compounds 3 and 4 could inhibit the actin polymerization mechanism and/or boost the F-actin depolymerization, we employed a fluorescent-labeled purified rabbit actin. LA and cytochalasin B (CB) were used as positive controls for both the polymerization inhibition and F-actin subunits dissociation, or only the polymerization inhibition, respectively. In the negative control reaction (only vehicle), actin monomers undergo a normal polymerization, as visible in Figure 5, panel A. The reaction curve rises in approximately 5 min to a value of about 25,000 RFU (plateau) which remains almost unvaried until the end of the experiment. Contrariwise, the two reference molecules, i.e., LA and CB, used at the concentration of 5 µM, braked the actin polymerization, mostly LA rather than CB, under the adopted experimental conditions, and the LA curve dropped until a value of about 8000 RFU at the reaction end.
(§1) An Actin Polymerization/Depolymerization Assay Kit, purchased from Abcam, was employed to assess the ability of compounds 3 and 4 to interfere with the actin polymerization and depolymerization processes. To perform the essays, the manufacturer’s instructions were followed with some modifications. In particular, polymerization assay was carried out incubating in a white 96-well plate the reconstituted actin with supplemented Buffer G, compounds 3 and 4 and then Buffer P was added in order to induce actin polymerization. For the Actin Depolymerization Assay, the actin polymerization was first induced, incubating supplemented Buffers P and G at room temperature for one hour. Then, compounds 3 and 4 were added at a concentration of 5 μM. Latrunculin A (LA) and Cytochalasin B (CB) were utilized as positive control at a concentration of 5 μM. For both the assays, the assemblage of the actin filaments was defined by measuring the fluorescence (Ex/Em: 365/410 nm) in kinetic mode for 1 h at room temperature in a microplate reader.

In experiment [2] the target is T2, F-actin (labeled rabbit muscle actin) (Oryctolagus cuniculus, UniProt P68135).
T2 construct: fluorescent label (chemical); purchased Abcam; host or cells: rabbit muscle
Description: In vitro F-actin depolymerization assay. It counts as biochemical. To be noted: 5 µM added after 1 h polymerization. The method, then:
Moreover, we performed the F-actin depolymerization assay to verify whether compounds 3 and 4 could induce the actin depolymerization as well as the LA does (Figure 5, panel B). For this purpose, we started the actin polymerization for one hour under the same experimental conditions used previously. Then, we added the compounds or the reference molecules at the concentration of 5 µM and monitored the reactions for an additional hour. […] The addition of CB was not able to produce the same effect of LA. […] Contrarily, both the compounds were able to induce an important depolymerizing effect on the F-actin, most evident in the first 7 min after the exposure. Particularly, compounds 3 and 4 produced final values of approximately 14,000 and 12,000 RFU, respectively. […] This combined effect leads to a disorganization of the intracellular actin network.
as §1

Experiment [3] concerns MDA-MB-231 cells. Description: MTT assay, MDA-MB-231 cell viability. It counts as cell-based. To be noted: Homo sapiens, 72 h, mean ± standard deviation. The method, then: (§2) The inhibition of cancer cell growth exerted by the five considered compounds (1–5) has been evaluated in vitro against two models of breast cancer, namely the estrogen receptor positive (ER+) MCF-7 and the triple negative MDA-MB-231 human breast cancer cells (lacking ER, PR, and HER-2/Neu amplification), together with the normal counterpart, namely the non-malignant breast epithelial cells MCF-10A. […] Moreover, no effects were recorded against the MCF-7 cells, at least until the concentration of 100 μM. […] Thus, the two lead compounds were chosen for subsequent studies aiming at individuating the molecular mechanisms underlying the observed anticancer activity.
(§3) MTT assays (Sigma Aldrich (St.Louis, MO, USA)) were employed to evaluate the in vitro anticancer activities of all the studied compounds, as previously described. The compounds were tested at different concentrations (0.1-1-10-25-50-100 μM) for 72 h. The IC50 values were calculated from the percent (%) of control using GraphPad Prism 9 (GraphPad Software, La Jolla, CA, USA).
For orientation: Formazan colour is commonly taken as a measure of viable cells.

In experiment [4] the test system is MCF-10A cells. Description: MTT assay, MCF-10A normal cell viability. It counts as cell-based, human. The settings on record: Homo sapiens, MCF-10A, 72 h, non-malignant breast epithelial cells, mean ± standard deviation. Here is the method: as §2, §3
Experiment [5] concerns MCF-7 cells. In words: MTT assay, MCF-7 cell viability. To be noted: Homo sapiens, MCF7, 72 h, mean ± standard deviation. It counts as cell-based. Here is the method: as §3
Experiment [6] has as its system actin system in MDA-MB-231 cells. Description: Actin immunofluorescence in MDA-MB-231 cells. It counts as cell-based, human. The settings on record: MDA-MB-231, 24 h; compounds at their IC50 values, LA 0.1 µM. The method, then:
In order to determine whether the lead compounds 3 and 4 may effectively regulate the actin system, we employed both the immunofluorescence and in vitro direct enzymatic assays. […] As negative and positive controls, we used the only vehicle (DMSO) and latrunculin A (LA) at a concentration of 0.1 µM, respectively. After processing, the cells were observed under a fluorescent microscope, (see experimental section for the details). […] Moreover, the latter looked brighter and stocked in the cytoplasm in dot-like structures or thicker fibers. Again, the MDA-MB-231 cells, under exposure to compounds 3 and 4, lost their shape (Figure 4, compounds 3 and 4, panels B), as we observed under LA treatment, and with a very similar arrangement of the actin network.
The cells were plated and further processed, as previously indicated. Specifically, the rabbit anti-β-Actin (Santa Cruz Biotechnology, Dallas, TX, USA), diluted 1:100 in bovine serum albumin (BSA) 2%, was used as primary antibody and incubated overnight at 4 °C. The secondary antibody, Alexa Fluor® 488 conjugate goat-anti-rabbit, was diluted 1:500 and incubated for 2 h at 37 °C. DAPI (4′,6-diamidino-2-phenylindole, Sigma Aldrich, Milan, Italy) 0.2 μg/mL was used for nuclei staining. A fluorescence microscope (Leica DM 6000) was utilized for fluorescence detection (40× magnification). LAS-X software allowed acquiring and processing all the fluorescence images, which are representative of three separate experiments.

`C=C1[C@@H](C)[C@H]2[C@H](Cc3ccccc3)NC(=O)[C@]23OC(=O)/C=C/[C@H](O)CCC[C@@H](C)C/C=C/[C@H]3[C@@H]1O` [CB, Cytochalasin B, reference compound]: in experiment [1], the “Actin polymerization, final fluorescence value of reaction curve” value was “approximately 13,000 RFU”. For the same compound, the F-actin depolymerizing effect entry in experiment [2] is listed as “does not induce the F-actin depolymerization”.
By IC50 is commonly meant the midpoint of a concentration-inhibition curve. Low values mean greater potency, high ones weaker potency. As for `Cc1ccc(C)c2c1c1cc(Br)ccc1n2C(=O)OC(C)(C)C` [Compound 1], the IC50 was 43.5 ± 1.21 µM in experiment [3], > 100 µM in experiment [4] and > 100 µM in experiment [5].
On to `COc1ccc2c(c1)c1c(C)ccc(C)c1n2C(=O)OC(C)(C)C` [Compound 2], for which the half-maximal inhibitory concentration (IC50) in experiment [3] is 8.19 ± 0.26 µM; in experiment [4] it was 89.16 ± 0.47 µM; in experiment [5], > 100 µM.
For `Cc1ccc(C)c2c1[nH]c1ccc(O)cc12` [Compound 5, 5,8-Dimethyl-9H-carbazol-3-ol], in that order: 6.59 ± 0.68 µM, > 100 µM and > 100 µM.
As to `Cc1c2ccncc2c(C)c2c1[nH]c1ccccc12` [Ellipticine, reference compound], the IC50 in experiment [3] came to 1.92 ± 0.38 µM; in experiment [4], 1.12 ± 0.51 µM.
In the case of `C/C1=C/C(=O)O[C@@H]2C[C@@H](CC[C@H](C)/C=C\C=C\CC1)O[C@@](O)([C@@H]1CSC(=O)N1)C2` [LA, Latrunculin A, reference compound], the “Effect on actin organization (immunofluorescence)” value in experiment [6] was “the cells underwent an important shape change”. In addition, the “Actin polymerization, final fluorescence value of reaction curve” value in experiment [1] is listed as “about 8000 RFU”. Further, the “F-actin depolymerization, final fluorescence value of reaction curve” value in experiment [2] (monitored 1 h, vehicle 20,000 RFU) was “about 8000 RFU”.

The record behind these values is article PMC10051477, “5,8-Dimethyl-9H-carbazole Derivatives Blocking hTopo I Activity and Actin Dynamics” (Pharmaceuticals, 2023).
